Data as given in ChEMBL document CHEMBL1140510, “New 1,2,3,4-tetrahydropyrrolo[3,4-b]indole derivatives as selective CB2 receptor agonists” (Bioorg Med Chem Lett, 2007).

Key:
[1] = target: T1, Cannabinoid receptor 2 (Homo sapiens, UniProt P34972); assay: Agonist activity at human CB2 receptor by GTPgamma[35S] assay relative to WIN-55212-2; format: functional
[2] = target: T1, Cannabinoid receptor 2; assay: Binding affinity to human CB2 receptor
[3] = target: T1, Cannabinoid receptor 2; assay: Agonist activity at human CB2 receptor by GTPgamma[35S] assay; format: functional
[4] = target: Cannabinoid receptor 1 (Homo sapiens, UniProt P21554); assay: Binding affinity to human CB1 receptor
Chain of Cannabinoid receptor 1 (P21554 whole entry): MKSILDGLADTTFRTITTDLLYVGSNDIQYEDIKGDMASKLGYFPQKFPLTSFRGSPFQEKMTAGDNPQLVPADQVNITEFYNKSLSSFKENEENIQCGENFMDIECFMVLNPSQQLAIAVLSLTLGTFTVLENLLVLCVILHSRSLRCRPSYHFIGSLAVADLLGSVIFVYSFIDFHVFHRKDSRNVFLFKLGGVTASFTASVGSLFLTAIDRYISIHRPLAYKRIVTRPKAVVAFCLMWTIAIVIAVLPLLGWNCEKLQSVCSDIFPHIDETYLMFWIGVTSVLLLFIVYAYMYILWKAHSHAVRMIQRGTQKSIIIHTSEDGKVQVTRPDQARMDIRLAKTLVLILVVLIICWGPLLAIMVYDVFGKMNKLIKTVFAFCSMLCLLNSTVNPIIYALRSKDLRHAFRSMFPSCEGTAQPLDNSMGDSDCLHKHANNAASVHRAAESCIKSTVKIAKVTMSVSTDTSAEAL

[5] = species on record: Homo sapiens; assay: Selectivity for human CB2 receptor over human CB1 receptor

T1 sequence (P34972 whole entry): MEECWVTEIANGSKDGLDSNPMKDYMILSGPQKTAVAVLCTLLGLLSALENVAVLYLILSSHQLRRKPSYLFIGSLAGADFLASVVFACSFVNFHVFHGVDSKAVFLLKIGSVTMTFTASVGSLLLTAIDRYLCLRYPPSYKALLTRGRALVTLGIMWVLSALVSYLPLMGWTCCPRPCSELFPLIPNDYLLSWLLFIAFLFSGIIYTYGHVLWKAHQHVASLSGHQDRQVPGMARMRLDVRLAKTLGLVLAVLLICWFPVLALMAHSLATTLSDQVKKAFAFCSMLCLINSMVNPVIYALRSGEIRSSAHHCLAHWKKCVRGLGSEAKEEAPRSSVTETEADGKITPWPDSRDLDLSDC

SMILES	Emax [1] [%]	Ki [2] [nM]	EC50 [3] [nM]	Ki [4] [nM]	Ratio Ki [5]
CCS(=O)(=O)n1c2c(c3cc(C(=O)N4CCC(C)CC4)ccc31)CN(C1CCCC1)C2	110	7	0.8	66.3	9.4
CCS(=O)(=O)n1c2c(c3cc(C(=O)N(C)CCC(C)C)ccc31)CN(C1CCCC1)C2		38.1		1470	38.7
CC1CCN(C(=O)c2ccc3c(c2)c2c(n3S(C)(=O)=O)CN(C3CCCC3)C2)CC1	105	7.9	0.6	279	35.3
CCS(=O)(=O)n1c2c(c3cc(C(=O)N4CCC(C)CC4)ccc31)CN(CC1CCCCC1)C2		935		339	0.4
CC1CCN(C(=O)c2ccc3c(c2)c2c(n3C)CN(C3CCCC3)C2)CC1		84.7		1810	21.4
CCS(=O)(=O)n1c2c(c3cc(C(=O)N4CCC(C)CC4)ccc31)CN(Cc1ccccc1)C2		37		1270	34.4
CCCCN1Cc2c(n(S(=O)(=O)CC)c3ccc(C(=O)N4CCC(C)CC4)cc23)C1	105	16.8	2.7	341	20.3
CCCCN(C)C(=O)c1ccc2c(c1)c1c(n2S(=O)(=O)CC)CN(C2CCCC2)C1	111	22.3	4	779	34.9
CCS(=O)(=O)n1c2c(c3cc(C(=O)N4CCC(C)CC4)ccc31)CN(C1CCOC1)C2 (stereo not drawn)		27.8		973	35
CC(=O)n1c2c(c3cc(C(=O)N4CCC(C)CC4)ccc31)CN(C1CCCC1)C2		88.1		2330	26.5
CC1CCN(C(=O)c2ccc3c(c2)c2c(n3S(=O)(=O)C3CC3)CN(C3CCCC3)C2)CC1	101	9.4	1.5	137	14.6
CCS(=O)(=O)n1c2c(c3cc(C(=O)N4CCC(C)CC4)ccc31)CN(CC1CC1)C2		6.3	0.5		
CC1CCN(C(=O)c2ccc3c(c2)c2c(n3S(=O)(=O)C(C)C)CN(C3CCCC3)C2)CC1	105	4.2	0.5	150	35.7
CCS(=O)(=O)n1c2c(c3cc(C(=O)N4CCC(OC)CC4)ccc31)CN(C1CCCC1)C2		27.6		2130	77.2
CCS(=O)(=O)n1c2c(c3cc(C(=O)N4CCC(C)CC4)ccc31)CN(C(C)C)C2	101	8.9	0.9	418	47
CCS(=O)(=O)n1c2c(c3cc(C(=O)N4CCC(F)CC4)ccc31)CN(C1CCCC1)C2		44.2		2910	65.9
CCCN1Cc2c(n(S(=O)(=O)CC)c3ccc(C(=O)N4CCC(C)CC4)cc23)C1	104	11.1	0.8	604	54.4
CCS(=O)(=O)n1c2c(c3cc(C(=O)N4CCOCC4)ccc31)CN(C1CCCC1)C2		308		> 8000	> 25
CCS(=O)(=O)n1c2c(c3cc(C(=O)N4CCC(C)CC4)ccc31)CN(C1CCCCO1)C2 (stereo not drawn)	107	17.6	1.7	6180	351
CC1CCN(C(=O)c2ccc3c(c2)c2c(n3S(=O)(=O)c3ccccc3)CN(C3CCCC3)C2)CC1	-62	17.9	15.6	259	14.5
CCCS(=O)(=O)n1c2c(c3cc(C(=O)N4CCC(C)CC4)ccc31)CN(C1CCCC1)C2	90	22.3	6.7	195	8.7
CCS(=O)(=O)n1c2c(c3cc(C(=O)N4CCCCC4)ccc31)CN(C1CCCC1)C2	107	17.5	1.7	818	46.7
CCCCCc1cc(O)c2c(c1)CC(C)(C)[C@@H]1CCC(C)=C[C@@H]21	64	140	13.5	20.1	0.14
CC1CCN(C(=O)c2ccc3[nH]c4c(c3c2)CN(C2CCCC2)C4)CC1		4720		> 8000	
CCS(=O)(=O)n1c2c(c3cc(C(=O)N4CCC(C)CC4)ccc31)CN(CCC1CCCCC1)C2		1980		2740	1.4
CC1CCN(C(=O)c2ccc3c(c2)c2c(n3Cc3ccccc3)CN(C3CCCC3)C2)CC1		106		658	6.2
CCS(=O)(=O)n1c2c(c3cc(C(=O)N4CCC(C)CC4)ccc31)CN(C1CCOCC1)C2		216		3020	14
C=CCn1c2c(c3cc(C(=O)N4CCC(C)CC4)ccc31)CN(C1CCCC1)C2	92	23.3	5	695	29.8
CCS(=O)(=O)n1c2c(c3cc(C(=O)N(C)C(C)C)ccc31)CN(C1CCCC1)C2		107		7220	67.5
C=CCN1Cc2c(n(S(=O)(=O)CC)c3ccc(C(=O)N4CCC(C)CC4)cc23)C1	104	6.4	0.3	263	41.1
